# Results published in US11446346B2, “Gastroretentive sustained release formulations of Bergenia ciliata” (COUNCIL OF SCIENTIFIC & INDUSTRIAL RESEARCH, priority 2017, dated 2022).
# Where two headings read alike, the source gives them in different places.
# Assays:
# [1] = in vivo; set-up: species or system SD rats; conditions: rat
# Protocol: The study was performed in male SD rats. To determine oral bioavailability of bergenin, the bergenin was administered at 5 mg/kg by IV route and at 50 mg/kg by oral route. For comparative oral pharmacokinetic study of plain extract (IIIM-160-A002) and GRSR formulation (filled in 9el capsules), the dose equivalent to 6.2 mg/kg of bergenin was administered in SD rats in both these groups. Blood samples were collected (n=3/time point) at 0.083 (IV only), 0.25, 0.5, 1, 2, 4, 8 and 24 h, post-dose. At each time point about 200 μL of blood was collected by jugular vein into a labeled microfuge tube containing 200 mM K2EDTA solution (20 μL per mL of blood) and equivalent volume of heparinized saline was replaced following sample collection. The blood samples were processed to obtain the plasma samples within 30 min of scheduled sampling time. All plasma samples were stored below −60° C. until bioanalysis. The plasma samples were analyzed for bergenin content using a fit-for purpose LC-MS/MS method with a lower limit of quantification (LLOQ) of 9.95 ng/mL. The pharmacokinetic parameters of bergenin were calculated using the non-compartmental analysis tool of validated Phoenix® WinNonlin® software (version 6.3).
# [2] = system: TNF-α; experiment: In-vitro cytokine inhibition in LPS-treated THP-1 cells (ELISA), TNF-α; format: cell-based, human; conditions: LPS 1 μg/ml, 24 h, sample 12.5 μg/mL
# Protocol: (§1) For the in vitro analysis of pro-inflammatory cytokines (IL-6 and TNF-α), human leukemia THP-1 cells were seeded in a 24-well plate at a density of 4×10^5 cells/ml of RPMI medium per well. THP-1 cells were then treated with phorbol 12-myristate 13-acetate (20 ng/ml) for differentiation into macrophages for 18 h followed by a rest period of 48 h. Cells were further co-treated with test samples and 1 μg/ml of lipopolysaccharide (LPS) in a serum-free medium. Culture supernatant was harvested after 24 h for analysis of different cytokines by using OptEIA ELISA Kits from BD Biosciences. Total protein content for all the samples was calculated by using Bradford reagent from Bio-Rad Laboratories. All the samples were normalized by dividing cytokine concentration with total quantity of protein. Bergenin was reported earlier as an inhibitor of TNF-alpha and IL-6 and was therefore was used as a positive control in this assay.
# [3] = system: IL-6; experiment: In-vitro cytokine inhibition in LPS-treated THP-1 cells (ELISA), IL-6; format: cell-based, human; conditions: LPS 1 μg/ml, 24 h, sample 12.5 μg/mL
# Protocol: as §1
# [4] = pH dependent stability of bergenin (HPLC, 24 h); format: physicochemical; conditions: at pH 7.4 and above
# Protocol: The stability study was performed in pH 1.2 buffer, pH 4.0 buffer, phosphate buffer pH 6.8, phosphate buffered saline pH 7.4, SGF (pH 1.2), SIF (pH 6.8) and plasma. The % of bergenin hydrolyzed after 24 h was determined by HPLC analysis. The HPLC analysis was carried out using the method as described in example 2.
# [5] = cited from earlier work
# [6] = rats; cited from earlier work
structure (smiles),measurement,setting,value
"COc1c(O)cc2c(c1O)[C@@H]1O[C@H](CO)[C@@H](O)[C@H](O)[C@H]1OC2=O [Bergenin, bergenin]",bioavailability,"[1]; male, SD",3%
same,AUC(0-t),"[1]; male, SD, iv, 5 mg/kg",874 ng·h/mL
same,clearance,"[1]; male, SD, iv, 5 mg/kg",95.5 mL/min/kg
same,half-life,"[1]; male, SD, iv, 5 mg/kg",0.318 h
same,volume of distribution relative to normal total body water content (0.7 L/kg in rats),"[1]; male, SD, iv, 5 mg/kg",~1.50 fold
same,AUC(0-t),"[1]; male, SD, po, 50 mg/kg",269 ng·h/mL
same,Cmax,"[1]; male, SD, po, 50 mg/kg",170 ng/mL
same,half-life,"[1]; male, SD, po, 50 mg/kg",1.74 h
same,median time to reach the maximum plasma concentration,"[1]; male, SD, po, 50 mg/kg",0.25 h
same,clearance relative to normal hepatic blood flow (55 mL/min/kg in rats),"[1]; iv, 5 mg/kg",~1.74 folds
same,inhibition at 12.5 µg/mL,[2]; Homo sapiens,61%
same,TNF-α (pg/mL)/total protein (μg),[2],2.40 ± 0.25 (pg/mL)/total protein (μg)
same,inhibition at 12.5 µg/mL,[3]; Homo sapiens,98%
same,IL-6 (pg/mL)/total protein (μg),[3],0.08 ± 0.107 (pg/mL)/total protein (μg)
same,hydrolysis of bergenin after 24 h,[4],gets hydrolyzed to its lactone ring opened product
same,stability at acidic pH of stomach,[5]; pH 1.2,stable
same,stability at intestinal pH,[5]; pH 6.8 and above,gets degraded
same,degradation half life,[5]; pH 7,14.4 h
same,degradation half life,[5]; pH 8,2.9 h
same,plasma half-life (t1/2),[6],1 to 2 h
